How the values were obtained:
ABCA1 gene expression = test: ABCA1 and LXRα gene expression in human macrophages; assay type: cell-based; conditions: compound solubilized according to example 6, dose-dependent, FIG. 12
Experimental: THP-1 monocytes (ATCC, Rockville, Md., USA) were placed in 6-well culture dishes in the presence of PMA (phorbol myristate acetate) and fetal calf serum and incubated at 37° C. for 48 hours to allow them to differentiate to macrophages.
To obtain primary macrophages, mononuclear cells were isolated from human blood as previously described (Chinetti et al. Nat. Medecine 7(1), 53-58, 2001), placed in 6-well culture dishes and grown for 10 days in the presence of human serum to enable adherence and differentiation of the primary monocytes to macrophages.
Treatment with the different compounds was carried out for 48 hours in medium without human or fetal calf serum but supplemented with 1% Nutridoma HU serum (Boehringer).
Total RNA was extracted from treated macrophages with the mini RNeasy kit (Qiagen, Hilden, Germany) according to the supplier's instructions, assayed by spectrometry and quantified by quantitative RT-PCR with the Light Cycler Fast DNA Master Green I kit (Hoffman-La Riche, Basel, Switzerland) on a Light Cycler System (Hoffman-La Riche, Basel, Switzerland). Primer pairs specific for the ABCA1 and LXRα genes were used as probes.

[1] = Glucose tolerance test in Zucker rats; assay type: in vivo, rat; conditions: 300 mg/kg/d
Description: (§1) Male C57BL/6 mice (Charles River, L'Arbresle, France) aged 6 weeks at the start of the experiments were randomly divided into groups of 6 animals such that body weight distribution was uniform. Mice were given a low-fat diet (UAR AO4), a high-fat diet (29% (m/m) coconut oil) or the same enriched diet supplemented with the test compounds. Obese male Zucker rats (fa/fa) or non obese rats (fa/+) aged 5 or 21 weeks (Charles River, L'Arbresle, France) were divided into groups of 8 animals selected such that the distribution of plasma cholesterol and triglyceride levels was uniform, and maintained on a standard diet. Animals were housed in a 12 hour light/dark cycle at a constant temperature of 20° C.±3° C. Animals had access to food and water ad libitum. Food intake and weight increase were recorded. The test compounds were suspended in carboxymethylcellulose and administered by gastric lavage at the indicated doses, once a day for 15 days. At the end of treatment, some animals underwent a glucose tolerance test as described hereinbelow. At the end of the experiment the other animals were weighed and sacrificed under anesthesia after a 5 hour fast. Blood was collected on EDTA. Plasma was prepared by centrifugation at 3000 rpm for 20 minutes. Liver samples were removed and stored frozen in liquid nitrogen for subsequent analysis.
Insulinemia was assayed on serum or plasma collected on EDTA. […]

PPARα = PPARα activation in vitro in HepG2 cells (Gal4 DNA binding domain / PPARα ligand binding domain chimera); assay type: cell-based; conditions: dose-dependent, FIG. 11
Experimental: Plasmids pG5TkpGL3, pGal4-hPPARα, pGal4-hPPARγ and pGal4-φ have been described previously (Raspé et al., J. Lipid Res. 40, 2099-2110, 1999). The pGal4-mPPARα and pGal4-hPPARδ constructs were obtained by cloning PCR-amplified DNA fragments corresponding to the DEF domains of the mouse PPARα and human PPARδ nuclear receptors into the pGal4-φ vector.
HepG2 and RK13 cells were from ECACC (Porton Down, UK) and were grown in DMEM medium supplemented with 10% (VN) fetal calf serum, 100 U/ml penicillin (Gibco, Paisley, UK) and 2 mM L-glutamine (Gibco, Paisley, UK). The culture medium was replaced every two days. Cells were kept at 37° C. in a humidified 5% CO2/95% air atmosphere.
HepG2 and RK13 cells seeded in 24-well culture dishes at a rate of 10^5 cells/well for HepG2 cells and 5×10^4 cells/well for RK13 cells were transfected for 2 hours with the reporter plasmid pG5TkpGL3 (10 ng/well), the expression vectors pGal4-φ, pGal4-mPPARα, pGal4-hPPARα, pGal4-hPPARγ, pGal4-hPPARδ (10 ng/well) and the transfection efficiency control vector pRL-null (Promega Madison, Wis., USA) (20 ng/well) according to the protocol previously described (Raspé et al., J. Lipid Res. 40, 2099-2110, 1999) and incubated for 36 hours with the test compounds. […]

[2] = Plasma cholesterol and triglycerides in Zucker rats; assay type: in vivo, rat
Description: as §1
Plasma lipid concentrations (total cholesterol and triglycerides) were determined by a colorimetric assay (Bio-Mérieux, Marcy l'Etoile, France) according to the supplier's instructions.

[3] = Plasma lipids and their distribution in lipoparticles in Sprague-Dawley rats; assay type: in vivo, rat; conditions: 300 mg/kg/d
Experimental: (§2) Sprague-Dawley or Wistar rats weighing 200 to 230 g (Charles River, L'Arbresle, France) were housed in a 12-hour light/dark cycle at a constant temperature of 20±3° C. After a 1-week acclimatization period, rats were weighed and distributed into groups of 8 animals selected such that the distribution of plasma cholesterol and triglyceride levels was uniform. The test compounds were suspended in carboxymethylcellulose and administered by gastric lavage at the indicated doses, once a day for 15 days. Animals had access to food and water ad libitum. At the end of the experiments, animals were weighed and sacrificed under anesthesia after a 5-hour fast. Blood was collected on EDTA. Plasma was isolated by centrifugation at 3000 rpm for 20 minutes. Liver samples were removed and stored frozen in liquid nitrogen until further analysis.
(§3) Lipid concentrations in plasma (total cholesterol and free cholesterol, triglycerides and phospholipids) were determined by a colorimetric assay (Bio-Mérieux, Marcy I'Etoile, France) according to the supplier's instructions. Plasma concentrations of apolipoproteins AII, AI and CIII were determined as previously described (Raspé et al., J. Lipid Res. 40, 2099-2110, 1999, Asset G et al., Lipids, 34, 39-44, 1999).
To separate the lipoproteins according to size, 300 μl of plasma were loaded on a Sepharose 6HR 10/30 column (Pharmacia, Uppsala, Sweden) and eluted at a constant flow rate (0.2 ml/minute) in PBS (pH 7.2). Optical density of the eluent was recorded at 280 nm. 0.3 ml fractions were collected. Lipid concentrations in the different fractions were determined by a colorimetric assay (Bio-Mérieux, Marcy I'Etoile, France) according to the supplier's instructions.

[4] = Plasma insulin and glucose balance in Zucker rats; assay type: in vivo, rat; conditions: 300 mg/kg/d
Description: as §1
Blood glucose was determined by a colorimetric enzymatic assay (Sigma Aldrich, St Louis, Mo., USA).
Insulinemia was assayed on serum or plasma collected on EDTA.

[5] = tested on: hepatic expression of ACO, CPT-I, CPT-II, Apo AI, Apo CIII genes; test: Hepatic gene expression (RT-PCR) in treated Sprague-Dawley rats; assay type: in vivo, rat; conditions: 300 mg/kg/d
Experimental: as §2
(§4) Total RNA was isolated from the liver fragments by extraction with a mixture of guanidine thiocyanate/phenol acid/chloroform as previously described (Raspé et al., J. Lipid Res. 40, 2099-2110, 1999). Messenger RNA was quantified by semi-quantitative or quantitative RT-PCR with the Light Cycler Fast Start DNA Master Sybr Green I kit (Hoffman-La Roche, Basel, Switzerland) on a Light Cycler System (Hoffman-La Roche, Basel, Switzerland). Primer pairs specific for the ACO, Apo CIII, Apo AI, CPT-I and CPT-II genes were used as probes. Primer pairs specific for the 36B4, β-actin and GAPDH genes were used as control probes (see table I).

[6] = tested on: hepatic expression of the ACO gene; test: Hepatic ACO gene expression in treated Wistar rats; assay type: in vivo, rat; conditions: 300 mg/kg/d, FIG. 9C
Experimental: as §2
as §4, with “Primer pairs specific for the 36B4, β-actin and GAPDH genes were used as control probes (see table I).” left out

[7] = Plasma cholesterol and triglycerides in Wistar rats; assay type: in vivo, rat; conditions: 300 mg/kg/d, after 14 days of treatment
Experimental: as §2, with “The test compounds were suspended in carboxymethylcellulose and administered by gastric lavage at the indicated doses, once a day for 15 days.” left out
as §3

CCCCCCCCCCCCCCSCC(=O)OCC(COC(=O)CSCCCCCCCCCCCCCC)OC(=O)CSCCCCCCCCCCCCCC [Example 4a, 1,2,3-tritetradecylthioacetylglycerol]
ABCA1 gene expression (ABCA1 gene expression): very strong activation of ABCA1 gene expression
plasma insulin levels during a glucose tolerance test ([1]; FIG. 8): used less insulin in response to the glucose injection
insulin sensitivity ([1]; concluded from glucose tolerance test): increase in insulin sensitivity
PPARα activation in vitro (PPARα): very strong activation of the PPARα nuclear receptor
total plasma cholesterol (gradual increase versus control group) ([2]; 300 mg/kg/d, FIG. 6A): said increase was slower
plasma triglycerides (gradual increase versus control group) ([2]; 300 mg/kg/d, FIG. 6B): said increase was markedly slower
plasma triglyceride levels, dose-effect relation ([2]; doses of 0 to 600 mg/kg/d, FIG. 10): gradual dose-dependent decrease in triglyceride levels
cholesterol distribution in lipoparticles (size exclusion chromatography) ([3]; FIG. 2A): decrease in cholesterol in the different lipoparticle classes
total plasma cholesterol levels ([3]; FIG. 2B): reduction of total plasma cholesterol levels
triglyceride distribution in lipoparticles (size exclusion chromatography) ([3]; FIG. 3A): decrease in triglycerides in this lipoparticle class
plasma triglyceride levels ([3]; FIG. 3B): reduction of plasma triglyceride levels
phospholipid distribution in lipoparticles (size exclusion chromatography) ([3]; FIG. 4A): decrease in phospholipids in the different lipoparticle classes
total plasma phospholipid levels ([3]; FIG. 4B): reduction of total plasma phospholipid levels
plasma glucose levels ([4]; FIG. 7): glucose levels were equivalent in the two groups
insulin sensitivity ([4]; concluded from insulin and glucose levels): increased insulin sensitivity
plasma insulin levels (gradual compensatory increase versus control group) ([4]; especially after 14 days, FIG. 7): said increase was slower
hepatic expression of ACO ([5]; FIG. 5A): strong activation of hepatic expression of ACO
hepatic expression of CPT-I ([5]; FIG. 5A): smaller increase in the expression of the genes CPT-I and CPT-II
hepatic expression of CPT-II ([5]; FIG. 5A): smaller increase in the expression of the genes CPT-I and CPT-II
hepatic Apo AI expression ([5]; FIG. 5B): slight decrease in hepatic Apo AI expression
hepatic Apo CIII expression ([5]; FIG. 5B): more marked decrease in Apo CIII expression

CCCCCCCCCCCCCCCC(=O)OCC(COC(=O)CCCCCCCCCCCCCCC)OC(=O)CSCCCCCCCCCCCCCC [Example 4g, 1,3-dipalmitoyl-2-tetradecylthioacetylglycerol]
hepatic expression of the ACO gene [6]: marked activation of hepatic expression of the ACO gene
plasma cholesterol ([7]; FIG. 9A): decrease in circulating cholesterol and triglyceride levels
plasma triglycerides ([7]; FIG. 9B): decrease in circulating cholesterol and triglyceride levels

Reference: patent publication US7375135B2, “Fatty acid derivatives; preparation and uses thereof” (Genfit, priority 2001, dated 2008)
